Experimental data published in US7192746B2, “α-Isomaltosyltransferase, process for producing the same and use thereof” (Kabushiki Kaisha Hayashibara Seibutsu Kagaku Kenkyujo, priority 2000, dated 2007).
Where two headings read alike, the source gives them in different places.

Assays:
Assay type in all cases: biochemical
[1] = tested on: α-isomaltosyl-transferring enzyme from Arthrobacter ramosus S1; assay: Formation of reducing power from high molecular glucans; conditions: printed Enzyme of Strain N75 a second time
Description: (§1) In the above experiment, no detectable amount of a lower molecular weight saccharide such as cyclotetrasaccharide detectable on TLC was formed from soluble starch, pullulan and dextran as high molecular glucans. The following test was carried out to confirm that the α-isomaltosyl-transferring enzyme of the present invention neither increase the reducing power of the above high molecular glucans nor hydrolyze them. To a solution of soluble starch, pullulan or dextran was added 12 units/g substrate of a purified specimen of α-isomaltosyl-transferring enzyme from either Bacillus globisporus C9 obtained by the method in Experiment 4, Bacillus globisporus C11 obtained by the method in Experiment 7, Bacillus globisporus N75 obtained by the method in Experiment 11, or Arthrobacter ramosus S1 obtained by the method in Experiment 15. The resulting each solution was adjusted to give a substrate concentration of one percent (w/v) and incubated at 35° C. and pH 6.0 for four hours. The reducing saccharide contents and the total sugar contents in the resulting reaction mixtures after the enzymatic reactions were respectively quantified by the Somogyi-Nelson's method and the anthrone-sulfuric acid reaction method. The percentage of forming reducing power was calculated by the following equation, and the results are in Table 13:
(§2) [formula] [formula] AR: Reducing sugar content after enzymatic reaction. AT: Total sugar content after enzymatic reaction. BR: Reducing sugar content before enzymatic reaction. BT: Total sugar content before enzymatic reaction.

[2] = tested on: α-isomaltosyl-transferring enzyme from Bacillus globisporus N75; assay: as above; conditions: Enzyme of Strain N75
Description: as §1, §2

[3] = tested on: α-isomaltosyl-transferring enzyme from Bacillus globisporus C11; assay: Action on saccharides (substrates, TLC); parameters: key: −: there was found no substrate change before and after the enzymatic reaction; +: there were found both the reduction of substrate and the formation of cyclotetrasaccharide after the enzymatic reaction; conditions: 2 units/g substrate, 2% (w/v) substrate, 30° C., pH 6.0, 24 hours
Summary of the method: (§3)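 Purified enzyme (partially purified for A. globiformis A19) at 2 units/g substrate acted on each saccharide at 2% (w/v), pH 6.0, 30° C., 24 h. Pre- and post-reaction mixtures ran on silica gel TLC in n-butanol/pyridine/water (6:4:1). Total sugars were stained by sulfuric acid-methanol and reducing sugars by diphenylamine-aniline.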

[4] = tested on: α-isomaltosyl-transferring enzyme from Arthrobacter ramosus S1; assay: Action on saccharides (substrates, TLC); parameters: key: −: there was found no substrate change before and after the enzymatic reaction; +: there were found both the reduction of substrate and the formation of cyclotetrasaccharide after the enzymatic reaction; conditions: 2 units/g substrate, 2% (w/v) substrate, 30° C., pH 6.0, 24 hours
Summary of the method: as §3

[5] = tested on: α-isomaltosyl-transferring enzyme from Arthrobacter globiformis A19; assay: Action on saccharides (substrates, TLC); parameters: key: −: there was found no substrate change before and after the enzymatic reaction; +: there were found both the reduction of substrate and the formation of cyclotetrasaccharide after the enzymatic reaction; conditions: partially purified enzyme, 2 units/g substrate, 2% (w/v) substrate, 30° C., pH 6.0, 24 hours
Summary of the method: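 Substrates 2% (w/v), enzyme 2 units/g substrate, pH 6.0, 30° C., 24 h. Read-out: silica TLC, n-butanol:pyridine:water 6:4:1; sulfuric acid-methanol (total sugar) and diphenylamine-aniline (reducing sugar) staining, pre- vs post-reaction.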

[6] = tested on: α-isomaltosyl-transferring enzyme from Bacillus globisporus N75; assay: Action on saccharides (substrates, TLC); parameters: key: −: there was found no substrate change before and after the enzymatic reaction; +: there were found both the reduction of substrate and the formation of cyclotetrasaccharide after the enzymatic reaction; conditions: 2 units/g substrate, 2% (w/v) substrate, 30° C., pH 6.0, 24 hours
Summary of the method: as §3

[7] = tested on: α-isomaltosyl-transferring enzyme from Bacillus globisporus C9; assay: Action on saccharides (substrates, TLC); parameters: key: −: there was found no substrate change before and after the enzymatic reaction; +: there were found both the reduction of substrate and the formation of cyclotetrasaccharide after the enzymatic reaction; conditions: 2 units/g substrate, 2% (w/v) substrate, 30° C., pH 6.0, 24 hours
Summary of the method: as §3

[8] = tested on: α-isomaltosyl-transferring enzyme from Bacillus globisporus C11; assay: Formation of reducing power from high molecular glucans; conditions: Enzyme of Strain C11
Description: as §1, with “The resulting each solution was adjusted to give a substrate concentration of one percent (w/v) and incubated at 35° C. and pH 6.0 for four hours.” left out
as §2

[9] = tested on: α-isomaltosyl-transferring enzyme from Bacillus globisporus C9; assay: as above; conditions: Enzyme of Strain C9
Description: as §1, with “The resulting each solution was adjusted to give a substrate concentration of one percent (w/v) and incubated at 35° C. and pH 6.0 for four hours.” left out
as §2

[10] = tested on: α-isomaltosyl-transferring enzyme from Bacillus globisporus N75
Description: (§4) The activity of the enzyme was assayed by dissolving panose in 100 mM acetate buffer (pH 6.0) to give a concentration of two percent (w/v) for a substrate solution, adding a 0.5 ml of an enzyme solution to a 0.5 ml of the substrate solution, enzymatically reacting the mixture solution at 35° C. for 30 min, suspending the reaction mixture by boiling for 10 min, and quantifying glucose by the glucose oxidation method. One unit activity of the α-isomaltosyl-transferring enzyme is defined as the enzyme amount that forms one micromole of glucose per minute under the above enzymatic reaction conditions. Throughout the specification, the enzymatic activity of the α-isomaltosyl-transferring enzyme means the unit(s) assayed as above.
(§5) The influence of metal ions on the activity of α-isomaltosyl-transferring enzyme was examined in the presence of 1 mM of a metal ion according to the assay for the enzyme activity.

[11] = tested on: α-isomaltosyl-transferring enzyme from Bacillus globisporus C9; assay: Influence of metal ions on enzyme activity; conditions: enzyme of Strain C9; for Relative activity: 1 mM metal ion; for Effect on enzyme activity: 1 mM
Description: as §4
The influence of metal ions on the activity of α-isomaltosyl-transferring enzyme was examined in the presence of 1 mM of each metal-ion according to the assay for the enzyme activity.

[12] = tested on: α-isomaltosyl-transferring enzyme from Bacillus globisporus C11; assay: Influence of metal ions on enzyme activity; conditions: enzyme of Strain C11; for Relative activity: 1 mM metal ion; for Effect on enzyme activity: 1 mM
Description: as §4, §5

[13] = tested on: α-isomaltosyl-transferring enzyme from Arthrobacter ramosus S1; assay: Influence of metal ions on enzyme activity; conditions: enzyme of Strain S1; for Relative activity: 1 mM metal ion; for Effect on enzyme activity: 1 mM
Description: as §4, §5

[14] = 0 hr, 12 units/g substrate, 1% (w/v), 35° C., pH 6.0
[15] = 1 mM metal ion, enzyme of Strain N75

soluble starch
Percentage of forming reducing power [1, 14]: 0.0% | Percentage of forming reducing power ([1]; 1 hr): 0.0% | Percentage of forming reducing power ([1]; 2 hr): 0.0% | Percentage of forming reducing power ([1]; 3 hr): 0.0% | Percentage of forming reducing power ([1]; 4 hr): 0.0% | Percentage of forming reducing power [2, 14]: 0.0% | Percentage of forming reducing power ([2]; 1 hr): 0.0% | Percentage of forming reducing power ([2]; 2 hr): 0.0% | Percentage of forming reducing power ([2]; 3 hr): 0.0% | Percentage of forming reducing power ([2]; 4 hr): 0.0% | Enzymatic action for forming cyclotetrasaccharide, Enzyme of Strain C11 [3]: − | Enzymatic action for forming cyclotetrasaccharide, Enzyme of Strain S1 [4]: − | Enzymatic action for forming cyclotetrasaccharide, Enzyme of Strain A19 [5]: − | Enzymatic action for forming cyclotetrasaccharide, Enzyme of Strain N75 [6]: − | Enzymatic action for forming cyclotetrasaccharide, Enzyme of Strain C9 [7]: − | Percentage of forming reducing power [8, 14]: 0.0% | Percentage of forming reducing power ([8]; 1 hr): 0.1% | Percentage of forming reducing power ([8]; 2 hr): 0.0% | Percentage of forming reducing power ([8]; 3 hr): 0.0% | Percentage of forming reducing power ([8]; 4 hr): 0.0% | Percentage of forming reducing power [9, 14]: 0.0% | Percentage of forming reducing power ([9]; 1 hr): 0.0% | Percentage of forming reducing power ([9]; 2 hr): 0.0% | Percentage of forming reducing power ([9]; 3 hr): 0.0% | Percentage of forming reducing power ([9]; 4 hr): 0.0%

[Sr+2] [Sr^2+]
Relative activity [10, 15]: 91% | Relative activity [11]: 101% | Relative activity [12]: 93% | Relative activity [13]: 101%

[Al+3] [Al^3+]
Relative activity [10, 15]: 94% | Relative activity [11]: 103% | Relative activity [12]: 89% | Relative activity [13]: 93%

[Ni+2] [Ni^2+]
Relative activity [10, 15]: 91% | Relative activity [11]: 102% | Relative activity [12]: 89% | Relative activity [13]: 87%

[Hg+2] [Hg^2+]
Relative activity [10, 15]: 0.5% | Effect on enzyme activity ([10]; 1 mM, enzyme of Strain N75): greatly inhibited | Relative activity [11]: 1% | Effect on enzyme activity [11]: greatly inhibited | Relative activity [12]: 2% | Effect on enzyme activity [12]: greatly inhibited | Relative activity [13]: 0.1% | Effect on enzyme activity [13]: greatly inhibited

[Co+2] [Co^2+]
Relative activity [10, 15]: 92% | Relative activity [11]: 103% | Relative activity [12]: 89% | Relative activity [13]: 91%

[Ca+2] [Ca^2+]
Relative activity [10, 15]: 100% | Effect on enzyme activity ([10]; 1 mM, enzyme of Strain N75): neither activated | Relative activity [11]: 101% | Effect on enzyme activity [11]: neither activated | Relative activity [12]: 91% | Effect on enzyme activity [12]: neither activated | Relative activity [13]: 103% | Effect on enzyme activity [13]: neither activated

[Ba+2] [Ba^2+]
Relative activity [10, 15]: 102% | Relative activity [11]: 102% | Relative activity [12]: 90% | Relative activity [13]: 97%

[Zn+2] [Zn^2+]
Relative activity [10, 15]: 75% | Relative activity [11]: 88% | Relative activity [12]: 83% | Relative activity [13]: 78%

O=C(O)CN(CCN(CC(=O)O)CC(=O)O)CC(=O)O [EDTA]
Effect on enzyme activity [10]: nor inhibited | Relative activity [10]: 92% | Relative activity [11]: 104% | Effect on enzyme activity [11]: nor inhibited | Relative activity [12]: 98% | Effect on enzyme activity [12]: nor inhibited | Relative activity [13]: 91% | Effect on enzyme activity [13]: nor inhibited
